Test results reported in patent US8003658B2, “Quinazoline derivatives for inhibiting cancer cell growth and method for the preparation thereof” (Hanmi Holdings Co., Ltd., priority 2004, dated 2011).
Where two headings read alike, the source gives them in different places.

Experiments:
A431 (ATCC: CRL-1555) = test: Test of cancer cell growth inhibition (SRB), A431; details: read-out: IC50 A431
SK-Br3 (ATCC: HTB-30) = test: Test of cancer cell growth inhibition (SRB), SK-Br3; details: read-out: IC50 SK-Br-3
SW-620 (ATCC: CCL-227) = test: Test of cancer cell growth inhibition (SRB), SW-620; details: read-out: IC50 SW-620
[1] = EGFR overexpressed A431, 72 hours, SRB
[2] = Erb-B2 overexpressed SK-Br3, 72 hours, SRB
[3] = SW-620 not having overexpressed EGFR and Erb-B2, 72 hours, SRB

SMILES	IC50 (A431 (ATCC: CRL-1555); Homo sapiens, A-431, 72 h) [nM]	IC50 (SK-Br3 (ATCC: HTB-30); Homo sapiens, SK-BR-3, 72 h) [nM]	IC50 (SW-620 (ATCC: CCL-227); Homo sapiens, SW-620, 72 h) [nM]	IC50 (A431 (ATCC: CRL-1555); [1]) [nM]	IC50 (SK-Br3 (ATCC: HTB-30); [2]) [nM]	IC50 (SW-620 (ATCC: CCL-227); [3]) [nM]
C=C(C)C(=O)NCCC(=O)Nc1ccc2ncnc(Nc3ccc(OCc4cccc(F)c4)c(Cl)c3)c2c1 [Example 30, N-(2-{4-[3-chloro-4-(3-fluoro-benzyloxy)-phenylamino]-quinazolin-6-ylcarbamoyl}-ethyl)-2-methyl-acrylamide]	119	38	> 10000	–	–	–
CC=CC(=O)NCCC(=O)Nc1ccc2ncnc(Nc3ccc(OCc4cccc(F)c4)c(Cl)c3)c2c1 [Example 28, but-2-enonylic acid (2-{4-[3-chloro-4-(3-fluoro-benzyloxy)-phenylamino]-quinazolin-6-ylcarbamoyl}-ethyl)-amide]	–	–	–	197	65	> 10000
C=CC(=O)NCCC(=O)Nc1cc2c(Nc3ccc(OCc4cccc(F)c4)c(Cl)c3)ncnc2cc1OCCCN1CCOCC1 [Example 85-2, N-{2-[4-[3-chloro-4-(3-fluoro-benzyloxy)phenylamino]-7-(3-morpholin-4-yl-propoxy)-quinazolin-6-ylcarbamoyl]-ethyl}-acrylamide]	12	3	> 10000	–	–	–
COCC(=O)NCC(OC(C)=O)C(=O)Nc1ccc2ncnc(Nc3ccc(OCc4cccc(F)c4)c(Cl)c3)c2c1 (stereo not drawn) [Example 39-2, acetic acid 1-{4-[3-chloro-4-(3-fluoro-benzyloxy)-phenylamino]-quinazolin-6-ylcarbamoyl}-2-(2-methoxy-acetylamino)-ethylester]	482	45	> 10000	–	–	–
CSCC(=O)NCCC(=O)Nc1ccc2ncnc(Nc3ccc(OCc4cccc(F)c4)c(Cl)c3)c2c1 [Example 117, N-{4-[3-chloro-4-(3-fluoro-benzyloxy)-phenylamino]-quinazolin-6-yl}-3-(2-methanesulfanyl-acetylamino)-propionamide]	–	–	–	336	40	> 10000
C=CC(=O)NCCCC(=O)Nc1ccc2ncnc(Nc3ccc(Oc4ccc(C)nc4)c(C)c3)c2c1 [Example 101, 4-acryloylamino-N-{4-[3-methyl-4-(6-methyl-pyridin-3-yloxy)-phenylamino]-quinazolin-6-yl}-butyramide]	786	21	> 10000	–	–	–
O=C(CN1CCOCC1)NCCCC(=O)Nc1ccc2ncnc(Nc3ccc(OCc4cccc(F)c4)c(Cl)c3)c2c1 [Example 103, N-{4-[3-chloro-4-(3-fluoro-benzyloxy)-phenylamino]-quinazolin-6-yl}-4-(2-morpholin-4-yl-acetylamino)-butyramide]	227	42	> 10000	–	–	–
COCC(=O)NCCCC(=O)Nc1ccc2ncnc(Nc3ccc(OCc4cccc(F)c4)c(Cl)c3)c2c1 [Example 87-2, N-{4-[3-chloro-4-(3-fluoro-benzyloxy)-phenylamino]-quinazolin-6-yl}-4-(2-methoxy-acetylamino)-butyramide]	95	35	> 10000	–	–	–
COCC(=O)NCCCCC(=O)Nc1ccc2ncnc(Nc3ccc(OCc4cccc(F)c4)c(Cl)c3)c2c1 [Example 115-2, 5-(2-methoxy-acetylamino)-pentanoic acid {4-[3-chloro-4-(3-fluoro-benzyloxy)-phenylamino]-quinazolin-6-yl}-amide]	117	38	> 10000	–	–	–
C=CC(=O)NCC(C)C(=O)Nc1ccc2ncnc(Nc3ccc(OCc4cccc(F)c4)c(Cl)c3)c2c1 (stereo not drawn) [Example 44, N-(2-{4-[3-chloro-4-(3-fluoro-benzyloxy)-phenylamino]-quinazolin-6-ylcarbamoyl}-propyl)-acrylamide]	43	6	> 10000	–	–	–
CN(C)CC(=O)NCCCC(=O)Nc1ccc2ncnc(Nc3ccc(OCc4cccc(F)c4)c(Cl)c3)c2c1 [Example 104, N-{4-[3-chloro-4-(3-fluoro-benzyloxy)-phenylamino]-quinazolin-6-yl}-4-(2-dimethylamino-acetylamino)-butyramide]	254	22	> 10000	–	–	–
COCC(=O)N[C@@H](Cc1ccccc1)C(=O)Nc1ccc2ncnc(Nc3ccc(OCc4cccc(F)c4)c(Cl)c3)c2c1 [Example 5-3, (2S)—N-{4-[3-chloro-4-(3-fluoro-benzyloxy)-phenylamino]-quinazolin-6-yl}-2-(2-methoxy-acetylamino)-3-phenyl-propionamide]	315	106	> 10000	–	–	–
C=CC(=O)N1CCCC1C(=O)Nc1ccc2ncnc(Nc3ccc(OCc4cccc(F)c4)c(Cl)c3)c2c1 (stereo not drawn) [Example 18, 1-acryloyl-pyrrolidine-2-carboxylic acid {4-[3-chloro-4-(3-fluoro-benzyloxy)-phenylamino]-quinazolin-6-yl}-amide]	157	290	> 10000	–	–	–
C=CC(=O)NCCCC(=O)Nc1ccc2ncnc(Nc3ccc(OCc4cccc(F)c4)c(Cl)c3)c2c1 [Example 89, 4-acryloylamino-N-{4-[3-chloro-4-(3-fluoro-benzyloxy)-phenylamino]-quinazolin-6-yl}-butyramide]	173	19	> 10000	–	–	–
C=CC(=O)NCC(=O)Nc1ccc2ncnc(Nc3ccc(OCc4cccc(F)c4)c(Cl)c3)c2c1 [Example 4, N-({4-[3-chloro-4-(3-fluoro-benzyloxy)-phenylamino]-quinazolin-6-ylcarbamoyl}-methyl)-acrylamide]	179	10	> 10000	–	–	–
C=CC(=O)N[C@@H](CCSC)C(=O)Nc1ccc2ncnc(Nc3ccc(OCc4cccc(F)c4)c(Cl)c3)c2c1 [Example 9, (2S)-2-acryloylamino-N-{4-[3-chloro-4-(3-fluoro-benzyloxy)-phenylamino]-quinazolin-6-yl}-4-methanesulfanyl-butyramide]	–	–	–	60	7	> 10000
CS(=O)(=O)CC(=O)NCCC(=O)Nc1ccc2ncnc(Nc3ccc(OCc4cccc(F)c4)c(Cl)c3)c2c1 [Example 21, N-{4-[3-chloro-4-(3-fluoro-benzyloxy)-phenylamino]-quinazolin-6-yl}-3-(2-methanesulfonyl-acetylamino)-propionamide]	455	16	> 10000	–	–	–
O=C(CCl)NCCC(=O)Nc1ccc2ncnc(Nc3ccc(OCc4cccc(F)c4)c(Cl)c3)c2c1 [Example 61, 3-(2-chloro-acetylamide)-N-{4-[3-chloro-4-(3-fluoro-benzyloxy)-phenylamino]-quinazolin-6-yl}-propionamide]	–	–	–	168	98	> 10000
C=CC(=O)NCCC(=O)Nc1ccc2ncnc(Nc3cncn3Cc3ccccc3)c2c1 [Example 79, N-{2-[4-(1-benzyl-1H-imidazol-5-ylamino)-quinazolin-6-ylcarbamoyl]-ethyl}-acrylamide]	65	3	> 10000	–	–	–
CCNC(=O)NCCC(=O)Nc1ccc2ncnc(Nc3ccc(OCc4cccc(F)c4)c(Cl)c3)c2c1 [Example 123, N-{4-[3-chloro-4-(3-fluoro-benzyloxy)-phenylamino]-quinazolin-6-yl}-3-(3-ethyl-ureido)-propionamide]	240	36	> 10000	–	–	–
COCC(=O)NCC(O)C(=O)Nc1ccc2ncnc(Nc3ccc(OCc4cccc(F)c4)c(Cl)c3)c2c1 (stereo not drawn) [Example 40, N-{4-[3-chloro-4-(3-fluoro-benzyloxy)-phenylamino]-quinazolin-6-yl}-2-hydroxyl-3-(2-methoxy-acetylamino)-propionamide]	327	84	> 10000	–	–	–
CC#CC(=O)NCCC(=O)Nc1ccc2ncnc(Nc3ccc(OCc4cccc(F)c4)c(Cl)c3)c2c1 [Example 27, but-2-ynoylic acid(2-{4-[3-chloro-4-(3-fluoro-benzyloxy)-phenylamino]-quinazolin-6-ylcarbamoyl}-ethyl)-amide]	–	–	–	85	10	> 10000
CC(C)(C)OC(=O)NCCC(=O)Nc1ccc2ncnc(Nc3ccc4c(cnn4Cc4ccccc4)c3)c2c1 [Example 77, {2-[4-(1-benzyl-1-indazol-5-ylamino)-quinazolin-6-ylcarbamoyl]-ethyl}-carbamic acid t-butylester]	–	–	–	208	86	> 10000
C=CC(=O)NCCC(=O)Nc1ccc2ncnc(Nc3ccc(F)c(Cl)c3)c2c1 [Example 54, N-{2-[4-(3-chloro-4-fluoro-phenylamino)-quinazolin-6-ylcarbamoyl]-ethyl}-acrylamide]	321	46	> 10000	–	–	–
COCC(=O)NCC(C)C(=O)Nc1ccc2ncnc(Nc3ccc(OCc4cccc(F)c4)c(Cl)c3)c2c1 (stereo not drawn) [Example 42-2, N-{4-[3-chloro-4-(3-fluoro-benzyloxy)-phenylamino]-quinazolin-6-yl}-3-(2-methoxy-acetylamino)-2-methyl-propionamide]	340	102	> 10000	–	–	–
N#CCC(=O)NCCCC(=O)Nc1ccc2ncnc(Nc3ccc(OCc4cccc(F)c4)c(Cl)c3)c2c1 [Example 93, N-{4-[3-chloro-4-(3-fluoro-benzyloxy)-phenylamino]-quinazolin-6-yl}-4-(2-cyano-acetylamino)-butyramide]	324	33	> 10000	–	–	–
COCC(=O)NCC(=O)Nc1ccc2ncnc(Nc3ccc(OCc4cccc(F)c4)c(Cl)c3)c2c1 [Example 2-4, N-({4-[3-chloro-4-(3-fluoro-benzyloxy)-phenylamino]-quinazolin-6-ylcarbamoyl}-methyl)-2-methoxy-acetamide]	206	245	> 10000	–	–	–
